Measurements from US20160242414A1, “SAFENED HERBICIDAL COMPOSITIONS CONTAINING HALAUXIFEN OR 4-AMINO-3-CHLORO-5-FLUORO-6-(4-CHLORO-2-FLUORO-3-METHOXYPHENYL) PYRIDINE-2-CARBOXYLIC ACID AND METHODS OF USE THEREOF IN TURF” (Dow AgroSciences LLC, priority 2015, published 2016).

Experiments:
[1] = test system: perennial ryegrass (LOLPE); experiment: Postemergence turf injury field trial, perennial ryegrass, with Activator 90 adjuvant
Description: (§1) For the ryegrass and tall fescue experiments, research trials were conducted in Indiana at the William H Daniel Turfgrass Research center in West Lafayette, Ind. on well established 10 year old stands of perennial ryegrass and tall fescue that were maintained as a home lawn with regular fertilization, irrigation and a 7.5 cm mowing height. To begin the trial, the research areas were sub-divided into 3 replications of 2.3 m^2 plots in a completely randomized block design for each grass species and spray mixtures were prepared just prior to the treatment by mixing the formulations with water.
Herbicide treatments were applied to ryegrass and tall fescue turfgrass plots in spray applications that included the spray adjuvant Activator 90 at 0.25% (v/v). The plots were treated with a hand held CO2 backpack sprayer equipped with a 3 liter bottle that delivered 804 liters/ha of spray to each plot using a flat fan nozzle. No irrigation, rainfall or mowing occurred until 24 hours after the application. The temperature at the time of the application was 24° C. and the wind speed averaged 4.8 km/hr. There was no cloud cover during the application and the soil was moist. Visual evaluations were made of turf injury for each plot on a 0%-100% scale where 0%=no injury and 100%=death at 0, 7, 14, 28 and 42 days after the application.
The following equation was used to calculate the expected activity of mixtures containing two active ingredients, A and B:
Expected=A+B−(A×B/100) • A=observed efficacy of active ingredient A at the same concentration as used in the mixture; • B=observed efficacy of active ingredient B at the same concentration as used in the mixture.

tall fescue (FESAR) = experiment: Postemergence turf injury field trial, tall fescue, with Activator 90 adjuvant; conditions: 28 days after application
Description: as §1
Herbicide treatments were applied to ryegrass and tall fescue turfgrass plots in spray applications that included the spray adjuvant Activator 90 at 0.25% (v/v). The plots were treated with a hand held CO2 backpack sprayer equipped with a 3 liter bottle that delivered 804 liters/ha of spray to each plot using a flat fan nozzle. No irrigation, rainfall or mowing occurred until 24 hours after the application. The temperature at the time of the application was 24° C. and the wind speed averaged 4.8 km/hr. There was no cloud cover during the application and the soil was moist. Visual evaluations were made of turf injury for each plot on a 0%-100% scale where 0%=no injury and 100%=death at 0, 7, 14, 28 and 42 days after the application. […]

## CNC.O=C(O)COc1ccc(Cl)cc1Cl [2,4-D DMA, 2,4-D dimethyl ammonium]
[1]; 28 days after application, 2,4-D DMA 840 g ae/ha
  Observed Injury: 3%
[1]; 28 days after application, 2,4-D DMA 1120 g ae/ha
  Observed Injury: 7%
[1]; 28 days after application, 2,4-D DMA 1680 g ae/ha
  Observed Injury: 0%
[1]; 28 days after application, 2,4-D DMA 2520 g ae/ha
  Observed Injury: 10%
[1]; 42 days after application, 2,4-D DMA 840 g ae/ha
  Observed Injury: 0%
[1]; 42 days after application, 2,4-D DMA 1120 g ae/ha
  Observed Injury: 0%
[1]; 42 days after application, 2,4-D DMA 1680 g ae/ha
  Observed Injury: 0%
[1]; 42 days after application, 2,4-D DMA 2520 g ae/ha
  Observed Injury: 0%

## CNC.COc1c(Cl)ccc(Cl)c1C(=O)O [Dicamba DMA, dicamba dimethyl ammonium]
Tall fescue (FESAR); dicamba DMA 280 g ae/ha
  Observed Injury: 0%
[1]; 28 days after application, dicamba DMA 280 g ae/ha
  Observed Injury: 7%

## COC(=O)c1nc(-c2ccc(Cl)c(OC)c2F)cc(N)c1Cl [Halauxifen-Methyl, halauxifen-methyl]
Tall fescue (FESAR); halauxifen-methyl 30 g ae/ha
  Observed Injury: 32%
[1]; 28 days after application, halauxifen-methyl 15 g ae/ha, 0%=no injury, 100%=death
  Observed Injury: 23%
[1]; 28 days after application, halauxifen-methyl 30 g ae/ha
  Observed Injury: 33%
[1]; 28 days after application, halauxifen-methyl 45 g ae/ha
  Observed Injury: 40%
[1]; 42 days after application, halauxifen-methyl 15 g ae/ha
  Observed Injury: 8%
[1]; 42 days after application, halauxifen-methyl 30 g ae/ha
  Observed Injury: 12%
[1]; 42 days after application, halauxifen-methyl 45 g ae/ha
  Observed Injury: 35%
